The numbers were not newly measured in US20230390178A1, “Skin Care Compositions and Methods of Use” (Colgate-Palmolive Company, priority 2022, published 2023), which cites them from elsewhere.

Each structure is given as a SMILES string.

With `O=C1O[C@H]([C@@H](O)CO)C(O)=C1O[C@H]1O[C@H](CO)[C@@H](O)[C@H](O)[C@H]1O` [ascorbyl glucoside], the “Log P” value is on record as −2.5.

A word on the Log P: it is the decadic logarithm of the partition coefficient of the neutral form, usually between octanol and water.
